Source: US5182298A, “Cholesterol lowering agents” (Merck & Co., Inc., priority 1991, dated 1993)
Values after ≈ are worked out from the molar mass of the structure shown. Where two headings read alike, the source gives them in different places.

Assays:
Candida guilliermondii [1] = assay: Microdilution Broth Assay (MIC/MFC); type: cell-based; conditions: Meyerozyma guilliermondii, strain MY 1019
Method: (§1) The broad spectrum antifungal activity of the present compounds was further determined by broth dilution methods. The compounds are particularly active towards filamentous fungi and yeasts including Candida albicans and Crypt. neoformans. The sensitivity of filamentous fungi and yeasts was determined using inhibitor dilution assays in microtiter format. A standardized spore suspension for testing the filamentous fungi was prepared by inoculating sterile distilled water with spores such that 1.5-7.5×10^3 colony forming units were added per well. The microtiter wells were filled with 75 μl of yeast nitrogen base containing 1% Dextrose medium (YNB/D) containing compound. Fifty μl of inoculated YNB/D medium was then added to the wells.
(§2) The sensitivity of yeasts was determined by inoculating sterile distilled water with aliquots of a 4-hour yeast culture grown in Yeast Morphology (YM) media at 35° C. and diluting in YNB/D to yield a final concentration of 1.5-7.5×10^3 colony forming units/well. Seventy-five μl of inoculated media was added per well. To test the sensitivity of yeast, compound was solubilized in 10 percent aqueous DMSO at 2.56 mg/ml. The compound was diluted serially in YNB/D from 128 to 0.06 μg/ml. The wells were filled with 75 μl of drug containing media. […] Representative of the antifungal activity are the minimum inhibitory concentration and minimum fungicidal concentration data shown below in Table II: […]

Saccharomyces cerevisiae [2] = assay: Microdilution Broth Assay (MIC/MFC); type: cell-based
Method: as §1, §2

Cryptococcus neoformans = assay: Microdilution Broth Assay (MIC/MFC); type: cell-based; conditions: for MIC: 35° C., read-out: MIC (minimum inhibitory concentration)
Method: as §1, §2

Candida parapsilosis = assay: Microdilution Broth Assay (MIC/MFC); type: cell-based; conditions: Lodderomyces parapsilosis; strain MY 1010; read-out: MFC (minimum fungicidal concentration)
Method: as §1, §2

Candida tropicalis = assay: Microdilution Broth Assay (MIC/MFC); type: cell-based
Method: as §1, §2

Candida albicans [3] = assay: Microdilution Broth Assay (MIC/MFC); type: cell-based
Method: as §1, §2

Torulospora hansenii = assay: FISP disc diffusion assay, zone of inhibition; type: cell-based; parameters: key: clear zone throughout, sharp edges; F: clear zone, fuzzy edges; S: slightly hazy zone (some growth observed throughout zone); H: hazy zone (considerable growth observed throughout zone); V: very hazy zone (zone of inhibition is barely discernable); R: zone displays a ring of resistant growth; conditions: CH2Cl2, 250 μg/ml
Description: (§3) The FISP assay employs disc diffusion susceptibility testing methods to generate a spectrum of activity against a panel of representative yeasts, filamentous fungi and bacteria.
(§4) The yeasts employed in the assay are Saccharomyces cerevisiae, Candida albicans, Candida tropicalis, Candida rugosa, Brettanomyces bruxellensis, Torulospora hansenii, Candida guilliermondi, Candida pseudotropicalis, Torulopsis glabrata, Cryptococcus albidus, Cryptococcus laurentii and Kluyveromyces fragilis.
(§5) For carrying out the assay, seeded assay plates are prepared in the following manner according to the type of assay strain.
(§6) Inocula for yeasts and bacterial strains are prepared from overnight broth cultures then diluted into potato dextrose agar to a final concentration of either 40 percent or 70 percent transmission at 660 nm.
(§7) Assay plates for the yeasts and filamentous fungi are prepared by diluting the inoculum into appropriate molten agar medium, cooled to 45° C. to obtain a final concentration of 4 percent.
(§8) The seeded agar media thus prepared are dispensed into petri dishes for assays (11 milliliters per dish).
(§9) The samples to be tested for production of antifungal agent are applied to 6.2 mm. filter paper discs (25 microliter/disc) and air dried at 24° C. […]
(§10) Following incubation, the inhibition zones are measured and recorded. […]

Bacillus subtilis = assay: FISP disc diffusion assay, zone of inhibition; type: cell-based; conditions: CH2Cl2, 250 μg/ml, agar diffusion
Method: as §3
The bacteria employed in the assay are Streptomyces sp., Acholeplasma laidlawii and Bacillus subtilis.
as §5
Seeded agar for Bacillus subtilis are prepared from a commercially available spore suspension which is diluted directly into molten agar (45° C.) to obtain a final concentration of 0.1 percent.
as §8
(§11) The samples to be tested for production of antifungal agent are applied to 6.2 mm. filter paper discs (25 microliter/disc) and air dried at 24° C. When the sample to be tested is crude broth, it may be centrifuged prior to application. The discs bearing the material to be tested are then applied employing sterile conditions to the seeded assay plates. The assay plates are then incubated at either 28° C. or 37° C. for 24 hours. In one of the assays for Bacillus subtilis, the sample is applied to a disc previously impregnated with 4M potassium chloride at 25 μl/disc and then air dried.
as §10

Saccharomyces cerevisiae [4] = assay: FISP disc diffusion assay, zone of inhibition; type: cell-based; conditions: 24 h, CH2Cl2, 250 μg/ml, agar diffusion, two lines without medium suffix, read-out: Zone: diameter of the zone of inhibition of growth
Description: as §3, §4, §5, §6
(§12) For three strains of Candida albicans and one strain of Saccharomyces cerevisiae, sterile saline is employed in place of potato dextrose broth.
as §7
(§13) The seeded agar media thus prepared are dispensed into petri dishes for assays (11 milliliters per dish). […]
as §10

Candida albicans [5] = assay: FISP disc diffusion assay, zone of inhibition; type: cell-based; conditions: 24 h, CH2Cl2, 250 μg/ml, agar diffusion, five lines without medium suffix, read-out: Zone: diameter of the zone of inhibition of growth
Description: as §3, §4, §5, §6, §12, §7, §13, §10

[6] = light stability on isolation and handling; type: physicochemical
Ceratocystis ulmi = assay: FISP disc diffusion assay, zone of inhibition; type: cell-based; parameters: key: clear zone throughout, sharp edges; F: clear zone, fuzzy edges; S: slightly hazy zone (some growth observed throughout zone); H: hazy zone (considerable growth observed throughout zone); V: very hazy zone (zone of inhibition is barely discernable); R: zone displays a ring of resistant growth; conditions: CH2Cl2, 250 μg/ml
Description: as §3
(§14) The filamentous fungi used in the assay were Penicillium sp. Aspergillus niger, Trichoderma sp., Phoma sp., Trichoderma lignorum, Fusarium oxysporum, Ustilago maydis, Ceratocystis ulmi, Alternaria soloni, Verticillium serrae, Botrytis allii, Scopulariopsis communis, Cephalosporium sp., Cercospora beticola, Rhizomucor miehei, Aspergillus flavus and Aspergillus fumigatus.
as §5
(§15) Inocula for filamentous fungi are prepared by scraping the surface of stock plates maintained on potato dextrose agar with a moistened sterile dacron swab. The spores and mycelia are then suspended in 10 milliliters of sterile potato dextrose broth and adjusted to 65 percent transmission at 660 nm.
as §7, §8, §11
(§16) Following incubation, the inhibition zones are measured and recorded. The measurements are made from the extreme edge where growth differs from the background zone. […]

Cephalosporium sp. = assay: FISP disc diffusion assay, zone of inhibition; type: cell-based; parameters: key: clear zone throughout, sharp edges; F: clear zone, fuzzy edges; S: slightly hazy zone (some growth observed throughout zone); H: hazy zone (considerable growth observed throughout zone); V: very hazy zone (zone of inhibition is barely discernable); R: zone displays a ring of resistant growth; conditions: CH2Cl2, 250 μg/ml
Description: as §3, §14, §5, §15, §7, §8, §11, §16

Phoma sp. = assay: FISP disc diffusion assay, zone of inhibition; type: cell-based; parameters: key: clear zone throughout, sharp edges; F: clear zone, fuzzy edges; S: slightly hazy zone (some growth observed throughout zone); H: hazy zone (considerable growth observed throughout zone); V: very hazy zone (zone of inhibition is barely discernable); R: zone displays a ring of resistant growth; conditions: CH2Cl2, 250 μg/ml
Description: as §3, §14, §5, §15, §7, §8, §11, §16

Aspergillus niger = assay: FISP disc diffusion assay, zone of inhibition; type: cell-based; conditions: 24 h, CH2Cl2, 250 μg/ml, agar diffusion, two lines for this species, read-out: Zone: diameter of the zone of inhibition of growth
Description: as §3, §14, §5, §15, §7, §13, §10

Torulopsis glabrata = assay: FISP disc diffusion assay, zone of inhibition; type: cell-based; conditions: Nakaseomyces glabratus, 24 h; CH2Cl2, 250 μg/ml; agar diffusion; read-out: Zone: diameter of the zone of inhibition of growth
Description: as §3, §4, §5, §6, §7, §8, §9, §10

Candida guilliermondii [7] = assay: FISP disc diffusion assay, zone of inhibition; type: cell-based; conditions: Meyerozyma guilliermondii, 24 h; CH2Cl2, 250 μg/ml; agar diffusion; read-out: Zone: diameter of the zone of inhibition of growth
Description: as §3, §4, §5, §6, §7, §8, §9, §10

CC(/C=C/C=C(\C)C(O)C(C)C(=O)O[C@H]1C[C@H](C)C=C2C=C[C@@]3(C)O[C@@H](O)CC(=O)[C@]3(C)[C@H]21)=C\C=C\C(=O)O (some centres unmarked) [Compound A]
MIC (Candida guilliermondii [1]; 24 to 48 hours, 35° C., read-out: MIC (minimum inhibitory concentration)): > 128 µg/mL
MFC (Candida guilliermondii [1]; read-out: MFC (minimum fungicidal concentration)): > 128 µg/mL
MIC (Saccharomyces cerevisiae [2]; strain MY 1976, 24 to 48 hours, 35° C., read-out: MIC (minimum inhibitory concentration)): > 128 µg/mL
MFC (Saccharomyces cerevisiae [2]; strain MY 1976, read-out: MFC (minimum fungicidal concentration)): > 128 µg/mL
MFC (Cryptococcus neoformans; strain MY 1051, read-out: MFC (minimum fungicidal concentration)): 32 µg/mL (≈ 59.2 µM)
MIC (Cryptococcus neoformans; strain MY 1146, 24 to 48 hours): 128 µg/mL (≈ 237 µM)
MFC (Cryptococcus neoformans; strain MY 1146, read-out: MFC (minimum fungicidal concentration)): 64 µg/mL (≈ 118 µM)
MIC (Cryptococcus neoformans; strain MY 2061, 24 to 48 hours): 128 µg/mL (≈ 237 µM)
MFC (Cryptococcus neoformans; strain MY 2061, read-out: MFC (minimum fungicidal concentration)): 64 µg/mL (≈ 118 µM)
MFC (Candida parapsilosis): 0.25 µg/mL (≈ 0.462 µM)
MIC (Candida tropicalis; strain MY 1012, 24 to 48 hours, 35° C., read-out: MIC (minimum inhibitory concentration)): ≤ 0.06 µg/mL
MFC (Candida tropicalis; strain MY 1012, read-out: MFC (minimum fungicidal concentration)): 0.5 µg/mL (≈ 0.925 µM)
MIC (Candida albicans [3]; Candida albicans, strain MY 1055, 24 to 48 hours, 35° C., read-out: MIC (minimum inhibitory concentration)): ≤ 0.06 µg/mL
MFC (Candida albicans [3]; Candida albicans, strain MY 1055, read-out: MFC (minimum fungicidal concentration)): ≤ 0.06 µg/mL
MFC (minimum fungicidal concentration) (Candida albicans [3]; strain MY 1028): ≤ 0.06 µg/mL
MIC (minimum inhibitory concentration) (Candida albicans [3]; strain MY 1028, 24 to 48 hours, 35° C.): ≤ 0.06 µg/mL
Zone quality (qualifier) (Torulospora hansenii): H
zone of inhibition at 250 µg/mL (Bacillus subtilis; Bacillus subtilis, 24 h, KCl (disc impregnated with 4M potassium chloride), read-out: Zone: diameter of the zone of inhibition of growth): 0 mm
Zone: diameter of the zone of inhibition of growth (Bacillus subtilis): 0 mm
zone of inhibition at 250 µg/mL (Saccharomyces cerevisiae [4]): 0 mm
zone of inhibition at 250 µg/mL (Candida albicans [5]): 0 mm
light sensitivity [6]: light sensitive
stability ([6]; isolated and worked with in the absence of light): stable
Zone quality (qualifier) (Ceratocystis ulmi): V
Zone quality (qualifier) (Cephalosporium sp.): F
Zone quality (qualifier) (Phoma sp.): S
zone of inhibition at 250 µg/mL (Aspergillus niger): 0 mm
zone of inhibition at 250 µg/mL (Torulopsis glabrata): 0 mm
zone of inhibition at 250 µg/mL (Candida guilliermondii [7]): 0 mm
